Laboratory results taken from ChEMBL document CHEMBL5523766 (J Med Chem, 2024).

Assays:
[1] = molecular target: Interleukin-1 receptor-associated kinase 4 (Homo sapiens) (UniProt Q9NWZ3); test: Inhibition of human IRAK4 at 10 uM relative to control
[2] = Apparent permeability across apical to basolateral side in human Caco-2 cells; assay type: ADME, cell-based
[3] = Tmax in ICR mouse at 50 mg/kg,po measured upto 24 hrs by LC-MS/MS analysis; assay type: ADME, organism-based; settings: in vivo
[4] = molecular target: Interleukin-1 receptor-associated kinase 4 (Homo sapiens, UniProt Q9NWZ3); test: Inhibition of human IRAK4
CAPAN-1 = test: Antiproliferative activity against human CAPAN-1 cells assessed as inhibition of cell growth incubated for 72 hrs by MTS assay; assay type: functional, cell-based; settings: CAPAN-1, 72 h
[5] = molecular target: Tyrosine-protein kinase ABL1 (Homo sapiens, UniProt P00519); test: Inhibition of human ABL
[6] = molecular target: T1, Tyrosine-protein kinase JAK1 (Homo sapiens, UniProt P23458); test: Inhibition of human JAK1 at 10 uM relative to control
[7] = molecular target: T2, Tyrosine-protein kinase Lyn (Homo sapiens, UniProt P07948); test: Inhibition of human LYN at 10 uM relative to control
[8] = Apparent permeability across basolateral to apical side in human Caco-2 cells; assay type: ADME, cell-based
NCI-H446 = test: Antiproliferative activity against human NCI-H446 cells assessed as inhibition of cell growth incubated for 72 hrs by MTS assay; assay type: functional, cell-based; settings: NCI-H446, 72 h
LoVo = test: Antiproliferative activity against human LoVo cells assessed as inhibition of cell growth incubated for 72 hrs by MTS assay; assay type: functional, cell-based
[9] = molecular target: NUAK family SNF1-like kinase 1 (Homo sapiens) (UniProt O60285); test: Inhibition of human ARK5 at 10 uM relative to control
[10] = Efflux ratio of apparent permeability across […] side in dog MDCK-MDR1 cells; assay type: ADME, cell-based, Canis lupus familiaris
[11] = molecular target: Receptor-type tyrosine-protein kinase FLT3 (Homo sapiens, UniProt P36888); test: Inhibition of human FLT3
[12] = molecular target: T3, Cyclin-dependent kinase 2 (Homo sapiens, UniProt P24941); test: Inhibition of human CDK2
Aurora kinase B [13] = molecular target: T4, Aurora kinase B (Homo sapiens, UniProt Q96GD4); test: Inhibition of human Aurora B at 10 uM relative to control
CYP2C9 = CYP2C9 (Homo sapiens, UniProt P11712); test: Time dependent inhibition of CYP2C9 (unknown origin) at 10 uM relative to control; assay type: ADME; settings: read-out: TDI
[14] = molecular target: T5, Tyrosine-protein kinase Lck (Homo sapiens, UniProt P06239); test: Inhibition of human LCK at 10 uM relative to control
[15] = Efflux ratio of apparent permeability across […] side in human Caco-2 cells; assay type: ADME, cell-based
HCT-116 = test: Antiproliferative activity against human HCT-116 cells assessed as inhibition of cell growth incubated for 72 hrs by MTS assay; assay type: functional, cell-based; settings: HCT-116, 72 h
AMPK alpha2/beta1/gamma1 = AMPK alpha2/beta1/gamma1 (Homo sapiens, UniProt P54619+P54646+Q9Y478); test: Inhibition of human AMPK alpha2/beta1/gamma1; assay type: protein-complex assay
[16] = Cmax in ICR mouse at 50 mg/kg,po measured upto 24 hrs by LC-MS/MS analysis; assay type: ADME, organism-based; settings: in vivo
[17] = AUCinfinity in ICR mouse at 50 mg/kg,po measured upto 24 hrs by LC-MS/MS analysis; assay type: ADME, organism-based; settings: in vivo
CYP2C19 = CYP2C19 (Homo sapiens, UniProt P33261); test: Time dependent inhibition of CYP2C19 (unknown origin) at 10 uM relative to control; assay type: ADME; settings: read-out: TDI
[18] = molecular target: T1, Tyrosine-protein kinase JAK1; test: Inhibition of human JAK1
[19] = Apparent permeability across basolateral to apical side in dog MDCK-MDR1 cells; assay type: ADME, cell-based, Canis lupus familiaris
CYP1A2 = CYP1A2 (Homo sapiens, UniProt P05177); test: Time dependent inhibition of CYP1A2 (unknown origin) at 10 uM relative to control; assay type: ADME; settings: read-out: TDI
[20] = Apparent permeability across apical to basolateral side in dog MDCK-MDR1 cells; assay type: ADME, cell-based, Canis lupus familiaris
[21] = molecular target: T3, Cyclin-dependent kinase 2; test: Inhibition of human CDK2 at 10 uM relative to control
PC-3 = test: Antiproliferative activity against human PC-3 cells assessed as inhibition of cell growth incubated for 72 hrs by MTS assay; assay type: functional, cell-based; settings: PC-3, 72 h
[22] = molecular target: Tyrosine-protein kinase Mer (Homo sapiens, UniProt Q12866); test: Inhibition of human MER
[23] = molecular target: T5, Tyrosine-protein kinase Lck; test: Inhibition of human LCK
DLD-1 = test: Antiproliferative activity against human DLD-1 cells assessed as inhibition of cell growth incubated for 72 hrs by MTS assay; assay type: functional, cell-based; settings: DLD-1, 72 h
[24] = Half life in ICR mouse at 50 mg/kg,po measured upto 24 hrs by LC-MS/MS analysis; assay type: ADME, organism-based; settings: in vivo
[25] = molecular target: Tyrosine-protein kinase Mer (Homo sapiens) (UniProt Q12866); test: Inhibition of human MER at 10 uM relative to control
[26] = AUClast in ICR mouse at 50 mg/kg,po measured upto 24 hrs by LC-MS/MS analysis; assay type: ADME, organism-based; settings: in vivo
[27] = molecular target: T6, Serine/threonine-protein kinase mTOR (Homo sapiens, UniProt P42345); test: Inhibition of human mTOR at 10 uM relative to control
Granta-519 = test: Antiproliferative activity against human Granta-519 cells assessed as inhibition of cell growth incubated for 72 hrs by MTS assay; assay type: functional, cell-based; settings: Granta-519, 72 h
[28] = molecular target: Receptor-type tyrosine-protein kinase FLT3 (Homo sapiens) (UniProt P36888); test: Inhibition of human FLT3 at 10 uM relative to control
SUD4 = test: Antiproliferative activity against human SU-DHL-4 cells assessed as inhibition of cell growth incubated for 72 hrs by MTS assay; assay type: functional, cell-based; settings: SU-DHL-4, 72 h
CYP3A4 = CYP3A4 (Homo sapiens, UniProt P08684); test: Time dependent inhibition of CYP3A4 (unknown origin) at 10 uM relative to control; assay type: ADME; settings: read-out: TDI
[29] = molecular target: T7, Tyrosine-protein kinase BTK (Homo sapiens, UniProt Q06187); test: Inhibition of human BTK at 10 uM relative to control
OCI-Ly10 = test: Antiproliferative activity against human OCI-Ly10 cells assessed as inhibition of cell growth incubated for 72 hrs by MTS assay; assay type: functional, cell-based; settings: OCI-Ly10, 72 h
[30] = molecular target: T2, Tyrosine-protein kinase Lyn; test: Inhibition of human LYN
CYP2D6 = CYP2D6 (Homo sapiens, UniProt P10635); test: Time dependent inhibition of CYP2D6 (unknown origin) at 10 uM relative to control; assay type: ADME; settings: read-out: TDI
[31] = molecular target: Serine/threonine-protein kinase BRSK2 (Homo sapiens, UniProt Q8IWQ3); test: Inhibition of human BRSK2
HT-29 = test: Antiproliferative activity against human HT-29 cells assessed as inhibition of cell growth incubated for 72 hrs by MTS assay; assay type: functional, cell-based; settings: HT-29, 72 h
[32] = molecular target: Serine/threonine-protein kinase BRSK2 (Homo sapiens) (UniProt Q8IWQ3); test: Inhibition of human BRSK2 at 10 uM relative to control
A2780 = test: Antiproliferative activity against human A2780 cells assessed as inhibition of cell growth incubated for 72 hrs by MTS assay; assay type: functional, cell-based; settings: A2780, 72 h
[33] = molecular target: AMPK alpha2/beta1/gamma1 (Homo sapiens) (UniProt P54646+P54619+Q9Y478); test: Inhibition of human AMPK alpha2/beta1/gamma1 at 10 uM relative to control; assay type: protein-complex assay
[34] = molecular target: Serine/threonine-protein kinase 17B (Homo sapiens) (UniProt O94768); test: Inhibition of human DRAK2 at 10 uM relative to control
[35] = Lipophilicity, logD of compound at pH 7.4; assay type: physicochemical; settings: buffer
[36] = molecular target: NUAK family SNF1-like kinase 1 (Homo sapiens, UniProt O60285); test: Inhibition of human ARK5
Aurora kinase B [37] = molecular target: T4, Aurora kinase B; test: Inhibition of human Aurora B
ATR/ATRIP = ATR/ATRIP (Homo sapiens, UniProt Q13535); test: Inhibition of ATR/ATRIP (unknown origin) using 5-FAM-AK-17 as substrate preincubated with compound for 10 mins followed by ATP addition and measured after 240 mins by mobility shift assay; assay type: protein-complex assay
[38] = molecular target: T7, Tyrosine-protein kinase BTK; test: Inhibition of human BTK
[39] = Plasma protein binding in mouse; assay type: ADME, cell-free; settings: read-out: PPB (converted)
[40] = molecular target: Serine/threonine-protein kinase 17B (Homo sapiens, UniProt O94768); test: Inhibition of human DRAK2
[41] = molecular target: T6, Serine/threonine-protein kinase mTOR; test: Inhibition of human mTOR

T4 sequence (Q96GD4 whole entry): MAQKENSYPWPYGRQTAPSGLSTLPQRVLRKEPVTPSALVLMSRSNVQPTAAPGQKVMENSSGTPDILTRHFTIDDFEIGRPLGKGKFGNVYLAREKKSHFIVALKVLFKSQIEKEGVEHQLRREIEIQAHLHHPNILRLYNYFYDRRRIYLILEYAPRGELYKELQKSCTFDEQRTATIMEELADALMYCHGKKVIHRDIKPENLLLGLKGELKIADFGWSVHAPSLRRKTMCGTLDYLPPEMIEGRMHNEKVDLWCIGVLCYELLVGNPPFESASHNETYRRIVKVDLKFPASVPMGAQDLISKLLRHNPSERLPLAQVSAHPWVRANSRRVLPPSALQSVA
T7 sequence (Q06187 whole entry): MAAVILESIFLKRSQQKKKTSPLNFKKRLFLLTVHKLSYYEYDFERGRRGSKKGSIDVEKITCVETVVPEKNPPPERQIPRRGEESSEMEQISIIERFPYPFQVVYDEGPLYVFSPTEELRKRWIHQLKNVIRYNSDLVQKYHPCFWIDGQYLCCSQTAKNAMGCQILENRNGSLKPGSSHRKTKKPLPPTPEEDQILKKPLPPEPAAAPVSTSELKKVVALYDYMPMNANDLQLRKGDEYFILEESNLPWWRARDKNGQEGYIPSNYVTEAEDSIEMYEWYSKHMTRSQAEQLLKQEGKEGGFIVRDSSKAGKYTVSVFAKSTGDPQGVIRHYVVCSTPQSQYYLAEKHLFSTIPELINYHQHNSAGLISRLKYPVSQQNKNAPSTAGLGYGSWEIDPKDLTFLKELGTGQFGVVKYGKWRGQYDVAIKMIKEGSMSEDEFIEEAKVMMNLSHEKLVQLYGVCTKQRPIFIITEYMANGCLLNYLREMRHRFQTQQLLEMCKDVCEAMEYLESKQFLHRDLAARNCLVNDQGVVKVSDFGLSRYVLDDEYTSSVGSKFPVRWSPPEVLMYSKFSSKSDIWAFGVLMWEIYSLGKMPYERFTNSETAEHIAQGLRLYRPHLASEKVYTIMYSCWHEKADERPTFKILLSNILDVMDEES
T1 sequence (P23458 whole entry): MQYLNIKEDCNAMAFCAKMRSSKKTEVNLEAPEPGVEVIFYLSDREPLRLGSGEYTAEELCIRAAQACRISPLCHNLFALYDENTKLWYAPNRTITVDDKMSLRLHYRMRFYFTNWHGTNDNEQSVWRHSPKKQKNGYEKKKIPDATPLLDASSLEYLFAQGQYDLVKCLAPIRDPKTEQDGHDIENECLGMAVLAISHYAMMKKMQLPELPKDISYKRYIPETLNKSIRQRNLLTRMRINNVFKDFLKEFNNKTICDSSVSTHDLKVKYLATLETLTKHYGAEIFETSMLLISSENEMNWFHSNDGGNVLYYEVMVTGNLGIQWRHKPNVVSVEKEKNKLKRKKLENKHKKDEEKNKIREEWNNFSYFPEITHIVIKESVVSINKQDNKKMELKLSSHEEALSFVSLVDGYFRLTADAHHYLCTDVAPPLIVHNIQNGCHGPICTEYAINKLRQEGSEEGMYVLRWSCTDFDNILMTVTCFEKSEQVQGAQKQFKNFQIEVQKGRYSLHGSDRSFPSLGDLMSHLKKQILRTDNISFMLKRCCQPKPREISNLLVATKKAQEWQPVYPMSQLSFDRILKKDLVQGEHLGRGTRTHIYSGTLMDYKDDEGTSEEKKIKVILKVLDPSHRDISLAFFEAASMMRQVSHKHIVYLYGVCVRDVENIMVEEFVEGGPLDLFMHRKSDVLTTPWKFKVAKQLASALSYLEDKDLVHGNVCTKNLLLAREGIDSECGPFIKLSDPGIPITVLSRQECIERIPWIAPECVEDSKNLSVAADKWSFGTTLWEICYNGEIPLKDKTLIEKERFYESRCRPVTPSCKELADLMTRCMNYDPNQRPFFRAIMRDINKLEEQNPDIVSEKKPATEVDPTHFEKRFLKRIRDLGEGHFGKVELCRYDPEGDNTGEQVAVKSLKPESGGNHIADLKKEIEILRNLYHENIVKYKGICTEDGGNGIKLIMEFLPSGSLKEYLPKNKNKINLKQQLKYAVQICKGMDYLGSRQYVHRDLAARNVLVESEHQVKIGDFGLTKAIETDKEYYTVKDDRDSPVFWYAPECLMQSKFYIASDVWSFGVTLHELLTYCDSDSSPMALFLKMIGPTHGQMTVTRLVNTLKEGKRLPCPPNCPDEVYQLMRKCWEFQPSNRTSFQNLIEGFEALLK
Sequence of CYP2D6 (P10635 whole entry): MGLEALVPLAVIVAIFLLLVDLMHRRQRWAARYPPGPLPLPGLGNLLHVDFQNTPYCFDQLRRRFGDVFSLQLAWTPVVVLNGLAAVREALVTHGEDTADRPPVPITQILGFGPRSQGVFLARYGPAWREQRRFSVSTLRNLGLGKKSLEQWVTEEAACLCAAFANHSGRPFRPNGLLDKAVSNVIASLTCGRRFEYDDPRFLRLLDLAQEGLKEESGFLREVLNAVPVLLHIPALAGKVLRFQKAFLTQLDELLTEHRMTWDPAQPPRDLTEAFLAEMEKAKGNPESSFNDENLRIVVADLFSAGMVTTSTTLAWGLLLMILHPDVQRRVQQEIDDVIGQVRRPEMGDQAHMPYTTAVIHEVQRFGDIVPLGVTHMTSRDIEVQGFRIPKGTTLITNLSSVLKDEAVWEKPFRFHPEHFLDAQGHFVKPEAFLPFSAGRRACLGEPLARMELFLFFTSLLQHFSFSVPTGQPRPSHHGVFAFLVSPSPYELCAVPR
Sequence of CYP2C9 (P11712 whole entry): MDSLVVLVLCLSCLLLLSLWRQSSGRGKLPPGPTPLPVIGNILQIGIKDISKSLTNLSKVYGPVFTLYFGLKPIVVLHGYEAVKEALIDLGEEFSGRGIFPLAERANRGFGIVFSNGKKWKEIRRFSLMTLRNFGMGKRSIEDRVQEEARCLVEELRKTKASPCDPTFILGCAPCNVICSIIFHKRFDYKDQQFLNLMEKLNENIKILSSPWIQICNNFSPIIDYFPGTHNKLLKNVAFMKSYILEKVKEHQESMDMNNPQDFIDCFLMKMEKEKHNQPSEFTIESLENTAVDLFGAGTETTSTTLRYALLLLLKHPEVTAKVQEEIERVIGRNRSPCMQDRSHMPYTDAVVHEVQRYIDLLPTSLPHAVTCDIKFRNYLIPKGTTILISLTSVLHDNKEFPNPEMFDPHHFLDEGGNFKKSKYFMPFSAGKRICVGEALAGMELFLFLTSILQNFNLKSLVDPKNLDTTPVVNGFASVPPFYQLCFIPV
Sequence of CYP2C19 (P33261 whole entry): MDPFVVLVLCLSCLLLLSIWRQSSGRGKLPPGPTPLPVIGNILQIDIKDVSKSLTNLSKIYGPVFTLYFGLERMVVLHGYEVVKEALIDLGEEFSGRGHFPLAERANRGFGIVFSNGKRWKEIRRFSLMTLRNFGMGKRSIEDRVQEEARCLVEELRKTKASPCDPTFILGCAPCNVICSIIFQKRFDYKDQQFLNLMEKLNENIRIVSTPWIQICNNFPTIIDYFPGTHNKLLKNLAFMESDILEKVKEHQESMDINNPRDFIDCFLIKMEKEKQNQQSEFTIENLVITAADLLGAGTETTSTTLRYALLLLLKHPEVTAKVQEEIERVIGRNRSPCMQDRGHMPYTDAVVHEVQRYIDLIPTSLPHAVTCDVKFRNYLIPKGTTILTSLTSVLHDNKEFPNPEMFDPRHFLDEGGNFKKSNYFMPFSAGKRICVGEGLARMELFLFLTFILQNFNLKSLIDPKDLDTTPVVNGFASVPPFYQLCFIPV
Sequence of Receptor-type tyrosine-protein kinase FLT3 (P36888 whole entry): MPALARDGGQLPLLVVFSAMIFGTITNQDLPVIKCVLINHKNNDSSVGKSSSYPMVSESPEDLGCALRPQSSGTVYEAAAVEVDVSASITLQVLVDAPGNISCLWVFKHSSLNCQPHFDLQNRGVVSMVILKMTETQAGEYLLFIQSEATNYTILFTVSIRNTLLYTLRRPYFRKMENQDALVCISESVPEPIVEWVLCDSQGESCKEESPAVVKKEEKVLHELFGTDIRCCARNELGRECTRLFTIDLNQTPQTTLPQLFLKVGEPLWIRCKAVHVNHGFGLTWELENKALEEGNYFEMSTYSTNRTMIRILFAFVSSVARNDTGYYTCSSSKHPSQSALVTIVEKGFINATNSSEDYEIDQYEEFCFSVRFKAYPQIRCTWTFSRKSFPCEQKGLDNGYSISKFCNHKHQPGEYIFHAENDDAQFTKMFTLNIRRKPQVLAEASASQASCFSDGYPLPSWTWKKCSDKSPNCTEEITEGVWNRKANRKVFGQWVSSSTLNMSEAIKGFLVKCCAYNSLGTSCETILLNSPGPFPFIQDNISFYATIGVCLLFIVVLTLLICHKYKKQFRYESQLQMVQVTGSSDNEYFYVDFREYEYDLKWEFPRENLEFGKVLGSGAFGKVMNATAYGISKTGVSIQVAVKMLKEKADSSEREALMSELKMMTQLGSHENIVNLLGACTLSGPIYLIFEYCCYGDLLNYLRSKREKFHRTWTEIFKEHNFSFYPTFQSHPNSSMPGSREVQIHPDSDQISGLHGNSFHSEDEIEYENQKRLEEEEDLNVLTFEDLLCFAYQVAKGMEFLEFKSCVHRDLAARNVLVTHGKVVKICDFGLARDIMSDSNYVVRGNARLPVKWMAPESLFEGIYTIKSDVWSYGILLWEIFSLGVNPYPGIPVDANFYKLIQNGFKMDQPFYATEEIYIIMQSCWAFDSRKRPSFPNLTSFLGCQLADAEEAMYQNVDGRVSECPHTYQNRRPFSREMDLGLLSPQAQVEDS
Sequence of Receptor-type tyrosine-protein kinase FLT3 (Homo sapiens) (P36888 whole entry): as above
Sequence of Serine/threonine-protein kinase 17B (O94768 whole entry): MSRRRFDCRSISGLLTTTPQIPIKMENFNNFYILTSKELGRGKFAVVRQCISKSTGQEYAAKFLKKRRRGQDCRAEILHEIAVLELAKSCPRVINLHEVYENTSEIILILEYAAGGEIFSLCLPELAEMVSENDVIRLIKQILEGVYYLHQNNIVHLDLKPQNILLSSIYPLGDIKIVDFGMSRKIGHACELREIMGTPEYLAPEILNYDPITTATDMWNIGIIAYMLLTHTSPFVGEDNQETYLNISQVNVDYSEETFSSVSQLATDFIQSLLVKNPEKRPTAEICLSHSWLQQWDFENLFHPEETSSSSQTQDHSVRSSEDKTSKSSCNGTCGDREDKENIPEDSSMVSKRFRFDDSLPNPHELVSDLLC

inhibition [1]: 46.1%
Papp A→B [2]: 21.5 ×10⁻⁶ cm/s
Tmax [3]: 30 min
IC50 [4]: > 10 µM
IC50 [5]: > 10 µM
inhibition [6]: 29.5%
inhibition [7]: 13.3%
Papp B→A [8]: 30.2 ×10⁻⁶ cm/s
IC50 (NCI-H446): 230 nM
IC50 (LoVo): 150 nM
inhibition [9]: 20.5%
efflux ratio [10]: 4.81
IC50 [11]: > 10 µM
IC50 [12]: > 10 µM
inhibition (Aurora kinase B [13]): 22.5%
inhibition at 10 µM (CYP2C9): 0%
inhibition [14]: 79.2%
efflux ratio [15]: 1.41
IC50 (HCT-116): 150 nM
IC50 (AMPK alpha2/beta1/gamma1): > 10 µM
Cmax [16]: 18900 ng/mL
AUC(0-inf) [17]: 46700 ng·h/mL
inhibition at 10 µM (CYP2C19): 0%
IC50 [18]: > 10 µM
Papp B→A [19]: 29 ×10⁻⁶ cm/s
inhibition at 10 µM (CYP1A2): 28.6%
Papp A→B [20]: 6.02 ×10⁻⁶ cm/s
inhibition [21]: 5.98%
IC50 (PC-3): 780 nM
IC50 [22]: > 10 µM
IC50 [23]: 4.95 µM
IC50 (DLD-1): 460 nM
half-life [24]: 121 min
inhibition [25]: 35.7%
AUC(0-t) at 24 h [26]: 46700 ng·h/mL
inhibition [27]: 102%
inhibition [28]: 62.8%
inhibition at 10 µM (CYP3A4): 18.6%
inhibition [29]: 41.8%
IC50 (OCI-Ly10): 100 nM
IC50 [30]: > 10 µM
inhibition at 10 µM (CYP2D6): 3.71%
IC50 [31]: > 10 µM
IC50 (HT-29): 350 nM
inhibition [32]: 21.6%
IC50 (A2780): 90 nM
inhibition [33]: 1.11%
inhibition [34]: 24.6%
logD [35]: 3.11
IC50 [36]: > 10 µM
IC50 (Aurora kinase B [37]): > 10 µM
IC50 (ATR/ATRIP): 1.6 nM
IC50 [38]: > 10 µM
fraction unbound [39]: 0.006
IC50 [40]: > 10 µM
IC50 [41]: 22.4 nM
Compound: C[C@@H]1COCCN1c1nc(-c2cncc3[nH]ccc23)nc2c1ccn2S(C)(=O)=O
IC50 (CAPAN-1): 820 nM
IC50 (Granta-519): 100 nM
IC50 (SUD4): 300 nM
